# In patent US9944721B2, “Polysialic acid and use for treatment of neurodegenerative and neuroinflammatory diseases” (RHEINISCHE FRIEDRICH-WILHELMS UNIVERSITÄT BONN, priority 2013, dated 2018):
# Key:
# [1] = tested on: human microglial cells stimulated with fibrillary amyloid-β1-42; assay: Amyloid-β1-42 induced superoxide release of human microglia (DHE); assay type: cell-based; details: Aβ 10 μM
# Experimental: The human microglial cell line was treated with human Alzheimer's disease associated fibrillary amyloid-beta peptide (Aβ) to mimic inflammatory signalling of Alzheimer's disease brain tissue. To obtain fibrillary components of Aβ, the synthetic amyloid-beta peptide (amyloid-beta 1-42, Bachem/Brucker, 10 μM) was preincubated at 37° C. for at least three days. The human microglial cells were treated with the different concentrations of 0.15 μM, 0.5 μM, or 1.5 μM of low molecular weight polysialic acid (PSA-20) for 60 minutes followed by incubation for 15 minutes with fibrillary Aβ. Then, 30 μM dihydroethidium (DHE) was added and incubated at 37° C. for 15 minutes for measurement of superoxide anion radical production. Cells were fixed with 4% paraformaldehyde plus 0.25% glutaraldehyde and analyzed by confocal microscopy. For the quantification of DHE staining intensity six pictures of each experiment were obtained and analyzed by ImageJ software (NIH). The background was subtracted and the mean values of the staining intensities were compared. Cells were fixed and the intensity of DHE was quantified by confocal microscopy.
# To confirm the specificity of the DHE measurement, the determination of the effect of PSA-20 on superoxide production in human microglial cells was repeated. As a control the radical scavenger Trolox, a water-soluble vitamin E analogue, was added to the system. Furthermore, as additional control superoxide dismutase-1 (SOD1) was added into the medium. Superoxide should no longer be detectable by the DHE dye after successful transformation of superoxide by SOD1.
# Human microglial cells were cultured alone and production of reactive oxygen species was analyzed after treatment with the Alzheimer's disease plaques associated fibrillary amyloid-β1-42. To measure the relative production of superoxide by the microglial cells, cells were plated in 4-chamber culture dishes. After 24 hours human microglial cells were treated with 1.5 μM of low molecular weight polysialic acid (PSA-20) for 60 minutes followed by incubation for 15 minutes with 10 μM fibrillary amyloid-β1-42. Control dishes were treated with either 1.5 μM PSA-20 and 40 μM Trolox or 1.5 μM PSA-20 and 20 μg/ml superoxide dismutase-1 (SOD1, Serva). Then, cells were washed 2-times with Krebs-HEPES-buffer and afterwards incubated for 15 minutes with 30 μM DHE solution (diluted in Krebs-HEPES-buffer). Finally cells were washed 2-times with Krebs-HEPES-buffer and fixed for 15 minutes with 0.25% glutaraldehyde and 4% PFA. In total, six images were randomly collected per experimental group by confocal laser scanning microscopy (Fluoview 1000, Olympus). All cells of the collected images were analyzed by Image J software (NIH).
# [2] = tested on: co-culture of human microglial line and iPS cell derived neurons; assay: Microglial neurotoxicity in human microglia-neuron co-culture, 24 hours (neurite length); assay type: cell-based; details: 1.5 μM, 24 hours co-culture; FIG. 4D
# Experimental: Next, the human microglial line was co-cultured for 24 hours with neurons derived from induced pluripotent stem cells and the effect of low molecular weight polysialic acid (PSA-20; 1.5 μM) on microglial neurotoxicity was evaluated. The human neurons were generated from human induced pluripotent stem cells (iPS cells). In vitro differentiation into neurons was carried out using a short modified protocol, which was used to induce primitive neural precursors. In detail, iPS cells were cultured on feeder cells to form small colonies. Next medium was changed to neural induction medium in the presence of LIF and three small molecules CHIR99021 (inhibitor of GSK-3β) and SB431542 (inhibitor of TGF-β and activin receptors), and compound E (inhibitor of γ-secretase) for 10 days. To expand the neural precursors, cells were dissociated to single cells by accutase and plated on poly-L-ornithine/fibronectin coated cell culture dishes with induction medium in the presence of leukaemia inhibitory factor (LIF), CHIR99021 and SB431542. […] Ten random photographs were taken for each condition by confocal laser scanning microscopy (Fluoview 1000, Olympus) and length of neuronal branches was measured by Neuron J software (NIH).
substance,measurement,setting,value
poly-(α(2→8)Neu5Ac)n [PSA-20],Aβ induced superoxide release,"[1]; 1.5 μM, 60 minutes pre-treatment, FIG. 4A",reduced
same,amyloid-β1-42 induced stimulation of the superoxide production,"[1]; repeat, FIG. 4B, PSA-20 1.5 μM, Trolox 40 μM, SOD1 20 μg/ml",prevented
same,neurotoxic effect of human microglia on human neurons (relative neurite length),[2],completely prevented the neurotoxic effect
